ChEMBL document CHEMBL5137093, “Improving Drug Delivery While Tailoring Prodrug Activation to Modulate Cmax and Cmin by Optimization of (Carbonyl)oxyalkyl Linker-Based Prodrugs of Atazanavir” (J Med Chem, 2022)
≈ marks a conversion by molar mass, not a printed value.

How the values were obtained:
[1] = Aqueous stability of the compound in phosphate buffer at pH 6.5 assessed as compound half life measured after 24 hrs by UPLC analysis; format: physicochemical; settings: for t1/2: buffer, pH 6.5, 24 h, 24 h; for half-life: phosphate buffer, pH 6.5
[2] = Tmax in Sprague-Dawley rat at 3 ml/kg,po measured upto 24 hrs by UPLC-MS/MS analysis; format: ADME; settings: in vivo
[3] = Aqueous stability of the compound in acetate buffer at pH 4 assessed as compound half life measured after 24 hrs by UPLC analysis; format: physicochemical; settings: for half-life: acetate buffer, pH 4; for t1/2: buffer, pH 4, 24 h, 24 h
[4] = Cmax in Sprague-Dawley rat at 3 ml/kg,po measured upto 24 hrs by UPLC-MS/MS analysis; format: ADME; design: dose 3 ml/kg, time < 24 hrs, route po; settings: in vivo
[5] = Relative AUC ratio of Atazanavir in Sprague-Dawley rat at 3 ml/kg,po measured upto 24 hrs by UPLC-MS/MS analysis; format: ADME; settings: in vivo
[6] = Ratio of AUC of Atazanavir in Sprague-Dawley rat at 3 ml/kg,po measured upto 24 hrs by UPLC-MS/MS analysis; format: ADME; settings: in vivo
[7] = Relative Cmax ratio of Atazanavir in Sprague-Dawley rat at 3 ml/kg,po measured upto 24 hrs by UPLC-MS/MS analysis; format: ADME; settings: in vivo
[8] = Fold ratio of total AUC of Atazanavir in Sprague-Dawley rat at 3 ml/kg,po measured upto 24 hrs by UPLC-MS/MS analysis; format: ADME; settings: in vivo
[9] = Aqueous stability of the compound in HCL at pH 1 assessed as compound half life measured after 24 hrs by UPLC analysis; format: physicochemical; settings: for half-life: aqueous HCl, pH 1; for t1/2: buffer, pH 1, 24 h, 24 h
[10] = Aqueous solubility of compound at pH 1 by UPLC analysis; format: physicochemical
[11] = AUClast in Sprague-Dawley rat at 3 ml/kg,po measured upto 24 hrs by UPLC-MS/MS analysis; format: ADME; design: time < 24 hrs, dose 3 ml/kg, route po; settings: in vivo; for AUClast: 24 h; for AUC(0-t) at 24 h: Sprague-Dawley, 3 ml/kg
[12] = Aqueous solubility of compound at pH 4 by UPLC analysis; format: physicochemical
[13] = Ratio of Cmax/Cmin of Atazanavir in Sprague-Dawley rat at 3 ml/kg,po measured after 24 hrs by UPLC-MS/MS analysis; format: ADME; settings: in vivo
[14] = aqueous medium, read-out: solubility

Structure (SMILES)	t1/2 [1]	Tmax ([2]; Sprague-Dawley, read-out: Tmax)	half-life [3]	Cmax ([4]; 24 h)	Ratio [5]	Ratio [6]	Ratio [7]	Ratio [8]	half-life [9]	solubility [10, 14]	AUClast [11]	solubility [12, 14]	t1/2 [3]	solubility ([10]; buffer)	solubility ([12]; buffer)	half-life [1]	Ratio [13]	Tmax ([2]; po, 24 h)	also measured
CCC(C)C(OC(=O)O[C@@H](CN(Cc1ccc(-c2ccccn2)cc1)NC(=O)[C@@H](NC(=O)OC)C(C)(C)C)[C@H](Cc1ccccc1)NC(=O)[C@@H](NC(=O)OC)C(C)(C)C)OC(=O)[C@@H](N)C(C)C (mixture of isomers)	27.3 h	0.3 h	> 500 h	805 nM	2.8	0.68	3.8	4.6	> 500 h	> 2100 µg/mL	0.724 µM·h	> 1500 µg/mL	–	–	–	–	–	–	–
COC(=O)N[C@H](C(=O)N[C@@H](Cc1ccccc1)[C@H](CN(Cc1ccc(-c2ccccn2)cc1)NC(=O)[C@@H](NC(=O)OC)C(C)(C)C)OC(=O)OC(OC(=O)CCN)C(C)C)C(C)(C)C (stereo in doubt; 3aa)	11.4 h	–	–	–	–	–	–	–	–	–	–	–	376.3 h	> 3000 µg/mL	> 2200 µg/mL	–	–	–	t1/2 [9]: 376.3 h
COC(=O)N[C@H](C(=O)N[C@@H](Cc1ccccc1)[C@H](CN(Cc1ccc(-c2ccccn2)cc1)NC(=O)[C@@H](NC(=O)OC)C(C)(C)C)OC(=O)OC(OC(=O)C[C@H](N)Cc1cc(F)c(F)cc1F)C(C)C)C(C)(C)C (stereo in doubt; 3ab)	–	–	376 h	–	–	–	–	–	> 500 h	–	–	> 910 µg/mL	–	> 960 µg/mL	–	8.9 h	–	–	–
COC(=O)N[C@H](C(=O)N[C@@H](Cc1ccccc1)[C@H](CN(Cc1ccc(-c2ccccn2)cc1)NC(=O)[C@@H](NC(=O)OC)C(C)(C)C)OC(=O)OC(OC(=O)C[C@H](N)Cc1cc(F)c(F)cc1F)C(C)C)C(C)(C)C (stereo in doubt; 3ac)	7.4 h	3 h	–	–	6.1	3.4	1.2	27	–	–	–	–	334.3 h	> 2400 µg/mL	960 µg/mL (≈ 926 µM)	–	36.4	–	Cmax ([4]; Sprague-Dawley, 3 ml/kg): 989 nM; AUC(0-t) at 24 h [11]: 8.01 µM·h
COC(=O)N[C@H](C(=O)N[C@@H](Cc1ccccc1)[C@H](CN(Cc1ccc(-c2ccccn2)cc1)NC(=O)[C@@H](NC(=O)OC)C(C)(C)C)OC(=O)OC(OC(=O)[C@H](C)N)C(C)C)C(C)(C)C (stereo in doubt; 3p)	–	0.4 h	41.8 h	34 nM	0.8	0.06	0.9	0.9	158 h	> 1600 µg/mL	0.019 µM·h	> 2400 µg/mL	–	–	–	3.6 h	–	–	–
COC(=O)N[C@H](C(=O)N[C@@H](Cc1ccccc1)[C@H](CN(Cc1ccc(-c2ccccn2)cc1)NC(=O)[C@@H](NC(=O)OC)C(C)(C)C)OC(=O)OC(OC(=O)[C@H](C)N)C(C)C)C(C)(C)C (stereo in doubt; 3q)	2.7 h	–	–	1900 nM	1.8	3.09	2.3	7.3	–	–	2.129 µM·h	–	30.4 h	> 1700 µg/mL	> 1800 µg/mL	–	1505	0.3 h	t1/2 [9]: 125.4 h
COC(=O)N[C@H](C(=O)N[C@@H](Cc1ccccc1)[C@H](CN(Cc1ccc(-c2ccccn2)cc1)NC(=O)[C@@H](NC(=O)OC)C(C)(C)C)OC(=O)OC(OC(=O)[C@@H](N)C(C)C)C(C)C)C(C)(C)C (stereo in doubt; 3r)	10.6 h	–	> 500 h	–	3.6	0	3.4	3.6	> 500 h	> 2600 µg/mL	–	> 2500 µg/mL	–	–	–	–	761.7	–	–
COC(=O)N[C@H](C(=O)N[C@@H](Cc1ccccc1)[C@H](CN(Cc1ccc(-c2ccccn2)cc1)NC(=O)[C@@H](NC(=O)OC)C(C)(C)C)OC(=O)OC(OC(=O)[C@@H](N)CC(C)C)C(C)C)C(C)(C)C (stereo in doubt; 3t)	12 h	–	–	–	1.3	0	2.1	1.3	–	> 1400 µg/mL	–	> 1100 µg/mL	136.8 h	–	–	–	304.4	–	t1/2 [9]: > 500 h
COC(=O)N[C@H](C(=O)N[C@@H](Cc1ccccc1)[C@H](CN(Cc1ccc(-c2ccccn2)cc1)NC(=O)[C@@H](NC(=O)OC)C(C)(C)C)OC(=O)OC(OC(=O)[C@@H](N)CC(C)C)C(C)C)C(C)(C)C (stereo in doubt; 3u)	5.9 h	0.3 h	–	–	2.1	0.13	2.9	2.4	–	–	–	–	59 h	> 1480 µg/mL	> 1600 µg/mL	–	–	–	Cmax ([4]; Sprague-Dawley, 3 ml/kg): 182 nM; t1/2 [9]: 136.8 h; AUC(0-t) at 24 h [11]: 0.105 µM·h
COC(=O)N[C@H](C(=O)N[C@@H](Cc1ccccc1)[C@H](CN(Cc1ccc(-c2ccccn2)cc1)NC(=O)[C@@H](NC(=O)OC)C(C)(C)C)OC(=O)OC(OC(=O)CCN)C(C)C)C(C)(C)C (stereo in doubt; 3z)	–	1.3 h	334 h	–	8.7	0	6.9	8.7	> 500 h	> 1700 µg/mL	–	> 1500 µg/mL	–	–	–	10.1 h	1309.3	–	Cmax ([4]; Sprague-Dawley, 3 ml/kg): 6 nM; AUC(0-t) at 24 h [11]: 0.007 µM·h
CCC(C)C(OC(=O)O[C@@H](CN(Cc1ccc(-c2ccccn2)cc1)NC(=O)[C@@H](NC(=O)OC)C(C)(C)C)[C@H](Cc1ccccc1)NC(=O)[C@@H](NC(=O)OC)C(C)(C)C)OC(=O)[C@@H](N)C(C)C (stereo in doubt; 4k)	13.4 h	–	–	1840 nM	3.2	1.34	3.7	7.5	–	–	1.658 µM·h	–	334.4 h	–	> 2600 µg/mL	–	1631.7	–	–
COC(=O)N[C@H](C(=O)N[C@@H](Cc1ccccc1)[C@H](CN(Cc1ccc(-c2ccccn2)cc1)NC(=O)[C@@H](NC(=O)OC)C(C)(C)C)OC(=O)OC(OC(=O)[C@@H](N)C(C)C)C(C)(C)C)C(C)(C)C (stereo in doubt; 4m)	23.7 h	–	–	27 nM	2	0.01	1.9	2	–	–	0.006 µM·h	–	–	> 1200 µg/mL	> 1000 µg/mL	–	721.4	0.3 h	–
COC(=O)N[C@H](C(=O)N[C@@H](Cc1ccccc1)[C@H](CN(Cc1ccc(-c2ccccn2)cc1)NC(=O)[C@@H](NC(=O)OC)C(C)(C)C)OC(=O)OC(OC(=O)[C@@H](N)C(C)C)C1CCCCC1)C(C)(C)C (stereo in doubt; 4o)	12.7 h	–	–	395 nM	1.1	0.98	1.4	2.1	–	–	0.406 µM·h	–	> 500 h	> 2000 µg/mL	> 1100 µg/mL	–	–	0.3 h	–
CN[C@H](C(=O)OC(OC(=O)O[C@@H](CN(Cc1ccc(-c2ccccn2)cc1)NC(=O)[C@@H](NC(=O)OC)C(C)(C)C)[C@H](Cc1ccccc1)NC(=O)[C@@H](NC(=O)OC)C(C)(C)C)C(C)C)C(C)C (stereo in doubt; 5e)	–	–	376 h	–	5.3	0.13	4.7	6	> 500 h	> 2500 µg/mL	0.262 µM·h	> 1400 µg/mL	–	–	–	4.7 h	364.4	0.3 h	Cmax ([4]; Sprague-Dawley, 3 ml/kg): 342 nM
CN[C@H](C(=O)OC(OC(=O)O[C@@H](CN(Cc1ccc(-c2ccccn2)cc1)NC(=O)[C@@H](NC(=O)OC)C(C)(C)C)[C@H](Cc1ccccc1)NC(=O)[C@@H](NC(=O)OC)C(C)(C)C)C(C)C)C(C)C (stereo in doubt; 5f)	2.87 h	–	–	382 nM	4.4	0.59	2.1	7	–	–	0.996 µM·h	–	> 500 h	> 2000 µg/mL	> 1900 µg/mL	–	194.1	0.7 h	–
COC(=O)N[C@H](C(=O)N[C@@H](Cc1ccccc1)[C@H](CN(Cc1ccc(-c2ccccn2)cc1)NC(=O)[C@@H](NC(=O)OC)C(C)(C)C)OC(=O)OC(OC(=O)[C@@H](NC(=O)[C@H](N)C(C)C)C(C)C)C(C)C)C(C)(C)C (stereo in doubt; 6g)	–	–	232 h	–	–	–	–	–	> 500 h	> 2200 µg/mL	–	> 1200 µg/mL	–	–	–	6.1 h	–	–	–
